According to patent US20100029683A1, “Methods for regulating cell mitosis by inhibiting serine/threonine phosphateses” (priority 2008, published 2010):

Experiments:
[1] = test system: NB xenografts; assay: Histologic examination of xenografts 24 hours after a single i.p. injection; format: in vivo, SCID mice; conditions: 24 hours after single i.p. injection
[2] = test system: U373 cells; assay: Western blots of pAkt-1, p53 and MDM2 in U373 cells after 24 hours; format: cell-based, human; conditions: U373, 2 nM
Protocol: (§1) 5×10^6 U87MG cells were inoculated s.c. into each flank of 20 SCID mice. When the xenografts were 0.5±0.1 cm (day 0), 5 animals each received i.p. vehicle alone days 1-12 (50% DMSO/H2O); compound 102 alone at 1.5 mg/kg days 1-3,5-7, & 9-11; TMZ alone at 80 mg/kg days 4, 8, 12; or both drugs at the same doses and schedules. If xenografts reached 1800 mm^3, animals were sacrificed. […] B, Survival curve combining the data from the study shown in FIG. 12A, with a second identical study involving a total of 10 animals with two xenografts each. Disease-free survival was defined as no recurrence of either xenografts. […] As in 12A, except that xenografts of SH-SY5Y cells were implanted in one flank only and animals were treated with one additional cycle of drugs, i.e., compound 102 on days 13-15, TMZ, on day 16, and compound 102 plus TMZ on the same schedules. […] E, Western blots of U87 cells in culture 24 hours after exposure to compound 102 at 2.5 uM, TMZ at 25 uM or DOX at 2 uM, and compound 102 plus TMZ or DOX. F, Western blots of U373 cells 24 hours after exposure to compound 102 at 2.5 uM, doxorubicin at 2 uM, and both drugs. G, Western blots of U373 cells 24 hours after exposure to TMZ at 25 uM, okadaic acid at 2 nM, and both drugs.

[3] = test system: PP2A; assay: PP2A activity in U87 s.c. xenografts and normal brain of SCID mice after i.p. injection; format: in vivo; conditions: single dose 1.5 mg/kg i.p.
Protocol: PP2A activity in U87 s.c. xenografts (blue) and in normal brain tissue (yellow) of SCID mice at different times after i.p. injection of 1.5 mg/kg compound 102 (one mouse per point; each lysate was measured in triplicate: mean and s.d.)

[4] = test system: U87 cells; assay: Immunofluorescence staining of p53; format: cell-based, human; conditions: 24 hour exposure, compound 102 2.5 uM, TMZ 25 uM
[5] = test system: U87MG; assay: Western blots of pAkt, p53 and MDM2 in U87MG cells after 24 hours; format: cell-based, human; conditions: compound 102 2.5 uM, TMZ 25 uM, DOX 2 uM
Protocol: as §1
The effects of compound 102, TMZ, doxorubicin (DOX), a widely used anti-cancer drug that disrupts DNA replication, compound 102 plus TMZ, and compound 102 plus DOX on the amount of pAkt, p53 and MDM2 in U87MG, a cell line with wild-type p53, and in U373, a cell line with mutant p53 (Short et al, 2007) were assessed by Western blots.

[6] = test system: SH-SY5Y xenografts; assay: SH-SY5Y neuroblastoma s.c. xenografts in SCID mice, compound 102 with TMZ; format: in vivo; conditions: as U87MG study plus one additional cycle of drugs; followed 7 weeks
Protocol: 5×10^6 U87MG cells were inoculated s.c. into each flank of 20 SCID mice. When the xenografts were 0.5±0.1 cm (day 0), 5 animals each received i.p. vehicle alone days 1-12 (50% DMSO/H2O); compound 102 alone at 1.5 mg/kg days 1-3,5-7, & 9-11; TMZ alone at 80 mg/kg days 4, 8, 12; or both drugs at the same doses and schedules. If xenografts reached 1800 mm^3, animals were sacrificed. […] B, Survival curve combining the data from the study shown in FIG. 12A, with a second identical study involving a total of 10 animals with two xenografts each. Disease-free survival was defined as no recurrence of either xenografts. […] As in 12A, except that xenografts of SH-SY5Y cells were implanted in one flank only and animals were treated with one additional cycle of drugs, i.e., compound 102 on days 13-15, TMZ, on day 16, and compound 102 plus TMZ on the same schedules. […] E, Western blots of U87 cells in culture 24 hours after exposure to compound 102 at 2.5 uM, TMZ at 25 uM or DOX at 2 uM, and compound 102 plus TMZ or DOX. F, Western blots of U373 cells 24 hours after exposure to compound 102 at 2.5 uM, doxorubicin at 2 uM, and both drugs. G, Western blots of U373 cells 24 hours after exposure to TMZ at 25 uM, okadaic acid at 2 nM, and both drugs. […]

[7] = test system: U87MG xenografts; assay: U87MG s.c. xenografts in SCID mice, compound 102 with TMZ; format: in vivo
Protocol: as §1
To determine the impact of altering DNA-damage defense mechanisms by inhibiting PP2A on the efficacy of cytotoxic chemotherapy, the effects of compound 102 combined with TMZ, a non-specific DNA-methylating drug, routinely used for the palliative treatment of GBM patients (Prados et al, 2008), were studied. SCID mice bearing s.c. xenografts of either the GBM line U87MG or the neuroblastoma line SH-SY5Y were treated with vehicle alone, compound 102 alone, TMZ alone, or both drugs at the same doses and schedules as when given alone.

[8] = Solubility character of lead compounds; format: physicochemical
[9] = test system: U87 cells; assay: U87 cell growth in vitro, viable cell count; format: cell-based, human; conditions: U87 cells (FIG. 6), read-out: IC50, inhibition of GBM cell growth
Protocol: FIG. 6: Effect of compound 102 on U87 cells in vitro at 1 uM; 2 uM; 5 uM; and 10 uM.
Viable cells were counted (mean and s.d.; n=3; Coulter particle counter).

[10] = target: PP1 (Homo sapiens, UniProt P62136); assay: Inhibition of purified PP1 (Ser/Thr Phosphatase Assay Kit 1); format: biochemical
Source text: (§2) Inhibition of PP2A and PP1 activity by compound 102 on purified PP1 and PP2A (mean and s.d.; n=3) (Ser/Thr Phosphatase Assay Kit 1, Millipore, Billerica, Mass.)

[11] = test system: U373 cells; assay: Cell cycle distribution of U373 cells by FACS after 48 hours; format: cell-based, human; conditions: U373, 48 hours
Protocol: (§3) Cells in unsynchronized logarithmic growth were exposed to vehicle or drug and adherent cells and cells in the media were collected. Harvested cells were fixed with 70% cold ethanol for 20 min at −20 degrees, washed with PBS, and stained with 10 ug/ml of PI and 1 ug/ml RNAse in TBS for 30 minutes and analyzed by FACS. A, Flow cytometry profiles of U87 cells after exposures to DMSO only, compound 102 only, 5 uM; TMZ only, 25 uM; compound 102 with TMZ combination, doxorubicin only, 2.0 uM and compound 102 with doxorubicin combination. B, Flow cytometry profiles of U373 cells.
(§4) We analyzed cell cycle patterns of U87MG and U373 cells 48 hours after exposure to TMZ or DOX alone and in combination with compound 102.

[12] = test system: DAOY medulloblastoma cells; assay: DAOY medulloblastoma s.c. xenografts in SCID mice; format: in vivo; conditions: treatment from day 6, measured to day 23
Protocol: DAOY medulloblastoma cells were implanted subcutaneously into the flanks of SCID mice. On day 6, mice were divided into 3 groups, one group receiving Compound 100, one group receiving Compound 102, and one group receiving vehicle alone. The subcutaneous tumor masses were measured on day 6, day 13, day 18, and on day 23 when all animals were sacrificed. […] In this model DAOY cells, when untreated, reached their maximum growth about 2 weeks after implantation with slow regression thereafterwards.

[13] = test system: U87MG cells; assay: Cellular and molecular changes in U87MG cells (immunofluorescence, Western blots); format: cell-based, human; conditions: 2.5 uM
Protocol: FIG. 11A-G: Cellular and molecular changes in U87 cells induced by compound 102 at 2.5 uM after 24 hour exposure (A-D, F, G) and after 3 hours ([…]).
A, Nuclear changes in U87 cells in unsynchronized logarithmic growth (upper panel, green immunofluorescence [IFS] GFP labeled-actin α and lower panel, blue DAPI staining). Numerous irregular nuclei with clumped chromatin in compound 102 treated cells are indicated by arrows. B, Disordered microtubules (green IFS tubulin-α and red IFS pPlk-1-Tre 210) and irregular clumped chromatin (blue DAPI) C, Western blots of U87 lysates: pAkt-1, total Akt-1, and β-actin. D, Western blots of U87 lysates: TCTP, pPlk (Tre-210), total Plk, and β-actin. E, IFS of TCTP in U87 cells, F, Western blots p53 (ser-15), pMDM2 (ser-166), and β-actin and G, IFS of p53 (ser-15).
TCTP is an abundant, highly conserved, multifunctional protein that binds to and stabilizes microtubules before and after mitosis and also exerts potent anti-apoptotic activity (Bommer and Thiele, 2004; Yarm, 2002; Susini et al, 2008) (FIG. 11E).

[14] = test system: U87MG cells; assay: Cell cycle distribution of U87MG cells by FACS after 48 hours; format: cell-based, human
Protocol: as §3, §4

[15] = target: PP2A (Homo sapiens, UniProt P67775); assay: Inhibition of purified PP2A (Ser/Thr Phosphatase Assay Kit 1); format: biochemical
Source text: as §2

[16] = test system: U373; assay: Inhibition of U373 glioblastoma cells after 7 days in culture, alone and in combination; format: cell-based, human; conditions: Compound 100 2.5 μM, cisplatin 0.1 μM, doxorubicin 0.01 μM, taxol 0.3 nM, each alone
Protocol: Cells were exposed to vehicle alone (control); Compound 100 at 2.5 uM; cisplatin at 0.1 uM; doxorubicin at 0.01 uM; or taxol at 0.3 nM alone or to the combination of Compound 100 plus each of the standard agents at the same concentrations. […] The expected percent inhibition at 7 days is the product of the inhibition by each agent alone.
Cells were exposed to vehicle alone (control); compound 100 at 2.5 μM, cisplatin at 0.1 μM; doxorubicin at 0.01 μM; or taxol at 0.3 nM alone or to the combination of compound 100 plus each of the standard agents at the same concentrations. […] The expected percent inhibition from a combination of drugs is calculated by multiplying the actual percent inhibition by each drug alone and comparing that product to the actual percent inhibition caused by the combination of the two drugs (Valeriote, 1975). The expected percent inhibition at 7 days is the product of the inhibition by each agent alone.

Chain of PP1 (P62136 whole entry): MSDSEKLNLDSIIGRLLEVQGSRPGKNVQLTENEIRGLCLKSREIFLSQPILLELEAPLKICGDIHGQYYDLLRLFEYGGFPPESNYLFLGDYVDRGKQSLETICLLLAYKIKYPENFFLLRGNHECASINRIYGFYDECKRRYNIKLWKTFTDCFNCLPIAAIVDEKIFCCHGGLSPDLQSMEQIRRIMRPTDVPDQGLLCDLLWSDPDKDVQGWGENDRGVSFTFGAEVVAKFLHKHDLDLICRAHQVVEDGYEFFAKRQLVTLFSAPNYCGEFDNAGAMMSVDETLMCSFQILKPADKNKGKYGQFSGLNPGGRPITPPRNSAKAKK
Chain of PP2A (Homo sapiens, UniProt P67775) (P67775 whole entry): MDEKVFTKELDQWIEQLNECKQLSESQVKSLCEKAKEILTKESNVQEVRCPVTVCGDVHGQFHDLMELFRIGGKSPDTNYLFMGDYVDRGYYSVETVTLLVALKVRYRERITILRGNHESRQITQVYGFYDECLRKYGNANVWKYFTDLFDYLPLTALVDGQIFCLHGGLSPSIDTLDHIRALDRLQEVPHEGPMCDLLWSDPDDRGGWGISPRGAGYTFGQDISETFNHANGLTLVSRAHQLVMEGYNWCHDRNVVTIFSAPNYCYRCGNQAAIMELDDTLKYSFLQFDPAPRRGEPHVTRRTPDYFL

## Cn1nnc2c(C(N)=O)ncn2c1=O [TMZ, temozolomide, reference compound]
[1]
  cells with cytoplasmic swelling and vacuolization: ~50%

## C=C1[C@@H](O)[C@@H]2O[C@]3(CC[C@H](/C=C/[C@@H](C)[C@@H]4CC(C)=C[C@@]5(O[C@H](C[C@@](C)(O)C(=O)O)CC[C@H]5O)O4)O3)CC[C@H]2O[C@@H]1[C@@H](O)C[C@H](C)[C@H]1O[C@@]2(CCCCO2)CC[C@H]1C [Okadaic acid, okadaic acid]
[2]
  effects on pAkt-1 and mutant p53: mimicked the effects of compound 102 on pAkt-1 and on mutant p53

## CC(C)(C)OC(=O)N1CCN(C(=O)C2C(C(=O)O)[C@H]3CC[C@@H]2O3)CC1 (stereo partly shown) [Compound 102]
[3]
  PP2A activity in normal brain tissue: inhibits PP2A activity
  PP2A activity in s.c. xenografts of U87 MG: inhibits PP2A activity
[4]
  intracellular levels of p53 by immunofluorescence: reduction of intracellular levels of p53
[5]
  MDM2 on Western blot: increased both pAkt-1 and MDM2
  p53 on Western blot: eliminated p53
  pAkt-1 on Western blot: increased both pAkt-1 and MDM2
[6]
  growth of NB (SH-SY5Y) xenografts: completely suppressed growth for 2 weeks
[7]; U87 xenografts, for the combination only the 3 mice with recurrence
  time of sacrifice (xenografts reached 1800 mm^3): 4-5 week
[7]; compound 102 1.5 mg/kg i.p. days 1-3, 5-7, 9-11, TMZ 80 mg/kg days 4, 8, 12
  growth of GBM (U87MG) xenografts: minimally delayed growth
[7]; compound 102 combined with temozolomide, greater than 28 weeks
  GBM xenografts: animals with complete regression without recurrence: 50%
[8]
  solubility character: lipid soluble
[9]
  IC50: ~4 µM
[10]
  IC50: ~80 µM
[11]
  cell cycle profile: no effect on this profile
[12]
  DAOY s.c. tumor mass: marked regression of the tumor by day 23
[13]
  p53 abundance: decreased the abundance of p53
  phosphorylated MDM2: increased phosphorylated MDM2
[13]; 24 hour exposure
  TCTP abundance: marked decrease in translationally controlled tumor protein
  microtubule and mitotic morphology (mitotic catastrophe): appearance of disordered microtubules and abnormal mitotic figures
  phosphorylated Akt-1: increased phosphorylated Akt-1
  phosphorylated Plk-1: increased phosphorylated Plk-1
[14]
  G1 phase cells: decreased G1
  G2/M phase cells: prominently increased G2/M
  S phase cells: modestly increased S
[15]
  IC50: ~0.4 µM
[1]
  cells with decreased cell size / small pyknotic nuclei: ~50%

## COc1cccc2c1C(=O)c1c(O)c3c(c(O)c1C2=O)C[C@@](O)(C(=O)CO)C[C@@H]3O[C@H]1C[C@H](N)[C@H](O)[C@H](C)O1 [DOX, doxorubicin]
[16]
  inhibition at 7 days, agent alone: 75.7%
[5]
  MDM2 on Western blot: little effect on MDM2
  p53 on Western blot: increased p53
  pAkt-1 on Western blot: decreased pAkt-1
[11]
  G1 phase cells: reduced G1 and G2/M
  G2/M phase cells: reduced G1 and G2/M
  S phase cells: greatly increased S

## CC(=O)O[C@H]1C(=O)[C@@]2(C)[C@H]([C@H](OC(=O)c3ccccc3)[C@]3(O)C[C@H](OC(=O)[C@H](O)[C@@H](NC(=O)c4ccccc4)c4ccccc4)C(C)=C1C3(C)C)[C@]1(OC(C)=O)CO[C@@H]1C[C@@H]2O [Taxol]
[16]
  inhibition at 7 days, agent alone: 114%

## N.N.[Cl][Pt][Cl] [cisplatin]
[16]
  inhibition at 7 days, agent alone: 93.5%
